Source: BindingDB's records for patent US20240246937 (Merck Sharp & Dohme, 2024)

Molecular target: T1, L-amino-acid oxidase (Homo sapiens, UniProt Q96RQ9)
T1 sequence (Q96RQ9 whole entry): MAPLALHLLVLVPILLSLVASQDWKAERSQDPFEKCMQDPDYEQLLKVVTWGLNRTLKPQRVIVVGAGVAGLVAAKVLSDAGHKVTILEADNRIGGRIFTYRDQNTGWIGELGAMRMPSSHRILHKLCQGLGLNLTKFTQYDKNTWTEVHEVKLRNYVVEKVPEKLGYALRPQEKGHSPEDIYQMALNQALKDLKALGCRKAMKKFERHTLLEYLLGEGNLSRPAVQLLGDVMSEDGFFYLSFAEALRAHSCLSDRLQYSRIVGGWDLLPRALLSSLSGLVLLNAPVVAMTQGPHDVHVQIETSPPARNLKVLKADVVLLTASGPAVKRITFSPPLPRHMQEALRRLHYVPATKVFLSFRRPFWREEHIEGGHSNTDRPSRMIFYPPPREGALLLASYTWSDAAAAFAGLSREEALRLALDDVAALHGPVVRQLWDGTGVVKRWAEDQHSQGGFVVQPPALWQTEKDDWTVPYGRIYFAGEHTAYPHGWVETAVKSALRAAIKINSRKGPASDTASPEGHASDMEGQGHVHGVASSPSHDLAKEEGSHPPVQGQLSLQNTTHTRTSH
Experiment: IL4I1 Enzymatic Assay
Description: Using this assay, the potency (EC50) of each compound was determined from a ten-point (1:3 serial dilution) titration curve using the following outlined procedure. To each well of a black flat-bottom Greiner (Cat #781076) 384 well-plate, 25 nL of compound (0.1% DMSO in final assay volume of 25 μL) was dispensed, followed by the addition of 12.5 μL of 1× assay buffer (50 mM Hepes 7.0 and 0.005% Tween20 (Sigma, Cat #P8341; low peroxide grade)) containing 2 nM of recombinant IL4I1 (R&D Systems, Cat #5684-AO-020). Plates were placed in an ambient temperature humidified chamber for a four-hour pre-incubation with compound. Subsequently, each reaction was initiated by the addition of 12.5 μL 1× assay buffer containing 2 mM of each aromatic amino acids (Phe/Tyr/Trp), 0.1 mM Amplex Red and 2 U/mL of HRP. The final reaction in each well of 25 μL consisted of 1 nM of IL4I1, 1 mM of each residues (Phe, Tyr and Trp), 0.05 mM Amplex Red and 1 U/mL of HRP. It should be noted that the concentrations of Amplex Red and HRP used here were in excess such that the conversion of H2O2 to resorufin product occurred

## CC1CC(N2CCN(Cc3nnc(-c4ccccc4)s3)C(=O)C2=O)C1 (stereo unspecified) [US20240246937, Example 289]
  EC50: 6 nM
